Test results taken from patent US9334272B2, “Derivatives of purinic and pyrimidinic antiviral agents and use thereof as potent anticancer agents” (Ramot at Tel-Aviv University Ltd., priority 2007, dated 2016).

How the values were obtained:
[1] = test system: U-251 cells; test: Hoechst viability assay, U-251 glioma cells; format: cell-based, human; conditions: 72 hours, Hoechst
Procedure: (§1) Cells (in quadruplicate) at the specified density were suspended in 200 μL medium supplemented with 10% FCS seeded in 96-well plates for 24 hours, then exposed to the drugs for 72 hours. The viability of the cells was determined by Hoechst fluorescent assay as described by Nudelman et al., 2005. Leukemic cell viability after 72 hours of treatment was determined by an MTT (3-(4,5-dimethylthiazol-2-yl)-2,5-diphenyltetrazolium bromide) assay as described by Levovich et al., 2007.
(§2) IC50 values were determined by linear regression of the percentage of survival following drug titration.

[2] = test system: 22RV1 cells; test: Hoechst viability assay, 22RV1 prostate carcinoma cells; format: cell-based, human; conditions: 72 hours, Hoechst
Procedure: as §1, §2

[3] = test system: U-251 cells; test: Apoptosis/cell death by annexin V-FITC and propidium iodide FACS, U-251 cells; format: cell-based; conditions: Homo sapiens; U-251 glioblastoma cells, 50 μM, 24 hours (untreated 9%)
Procedure: Cells were seeded in six-well plates (10^5 cells/well) for 24 hours and were then treated as specified, trypsinized, washed with PBS, double-stained with annexin V-FITC (fluorescein isothiocyanate) and propidium iodide, according to the manufacturer's instructions and subjected to flow cytometry analysis (FACScalibur cytometer, Becton Dickinson).

[4] = test system: U-251 cells; test: Mitochondrial membrane potential (JC-1 staining), U-251 cells; format: cell-based, human; conditions: 60 μM, 24 hour treatment
[5] = test system: U-251 cells; test: Reactive oxygen species by DCF-DA FACS, U-251 cells; format: cell-based, human; conditions: 2 hour treatment
Procedure: ROS levels were determined by FACS analysis of U-251 cells treated with dichlorodihydrofluorescein diacetate (DCF-DA), which becomes fluorescent when oxidized.

[6] = target: T1, proteasome (Homo sapiens, UniProt P28074); test: Proteasome activity assay, U-251 cells; format: cell-based; conditions: 4 or 24 hours, alone or in combination
T1 construct: proteasome activity in U-251 cells treated for 4 or 24 hours; endogenous in cells; host or cells: U-251 cells (lysates of treated cells)
T1 sequence (P28074 60-263): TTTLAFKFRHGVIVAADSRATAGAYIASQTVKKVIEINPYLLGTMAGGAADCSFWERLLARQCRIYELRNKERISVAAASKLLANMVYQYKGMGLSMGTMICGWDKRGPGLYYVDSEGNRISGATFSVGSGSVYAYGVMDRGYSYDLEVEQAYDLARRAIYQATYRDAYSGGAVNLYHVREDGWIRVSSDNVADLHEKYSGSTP
Procedure: The peptidase or chymotrypsin-like activity of the proteasome was assayed using N-succinyl-Leu-Leu-Val-Tyr-7-amido-4-methylcoumarin. The lysates (100 μL) were incubated with 13 (M of the substrate in 100 mM Tris, pH 7.5, for 1 hour with shaking at room temperature. The reaction was stopped by addition of ice-cold ethanol, and the samples were centrifuged for 5 minutes at 2500 g. The supernatants were collected and the fluorescence was measured with excitation/emission filters of 390/460 nm using the FluoStar fluorimeter. The protein concentration was determined using a BCATM kit (Pierce) and the proteasome activity was derived from the ratio of fluorescence at 460 nm/(g of protein. The percentage of proteasome activity was calculated relative to untreated cells.

[7] = test system: U-251 cells; test: Cell cycle analysis (propidium iodide flow cytometry), U-251 cells; format: cell-based, human; conditions: 24 hours
Procedure: Cells (4×10^5) were seeded in 35 mm culture dishes and after 24 hours were starved in medium without serum for an additional 24 hours, and then treated with the drug for an additional 24 hours. The cells were then trypsinized to a single cell suspension in PBS, washed, and resuspended in PBS at a concentration of 10^6 cells/mL. The cells were fixed with 70% ethanol for 30 minutes at 4° C., centrifuged and resuspended in 1 ml PBS containing 0.1% Tween 20 and 0.05% bovine serum albumin (BSA). RNase free of DNase was added, and the cell suspension (10^6 cells) was incubated at […] for 30 minutes. The cell suspension was then chilled on ice to a temperature in the range of 2 to 8° C. Propidium iodide (50 μg/mL) was added to the cell suspension, which was than kept in the dark. Red fluorescence (>630 nm) was analyzed on the flow cytometer.

[8] = test system: acetylated histone H4; test: Histone H4 acetylation Western blot, U-251 cells; format: cell-based, human; conditions: 2-4 hours of treatment
Procedure: For the determination of in vitro histone acetylation, 2.5-3×10^6 cells, seeded in 100 mm culture dishes, were supplemented with RPMI medium containing 10% heat inactivated FCS and were treated with the drugs the following day. At the specified times post-treatment, the cells were removed with a rubber policeman, centrifuged, washed, lysed with lysis buffer (PBS, Nonidet® NP-40 1%, sodium deoxycholate 0.5%, sodium dodecyl sulfate (SDS) 0.1%, 1 mM phenylmethylsulfonyl fluoride (PMSF), 1 mM sodium orthovanadate, and 1 μM each of leupeptin and pepstatin) and centrifuged at 10,000 g for 10 minutes at 4° C. […] The extract was then lyophilized, and protein concentration was determined with a BCA kit (Pierce, USA). […] The fold increase of acetylated histones was determined by the ratio of band intensities of treated and untreated cells or mice, normalized to loading control (total histone H3).
Cell lysates or acid extracted histones were solubilized in a concentrated (×4) loading buffer (62.5 mM Tris-HCl, pH 6.8, 1% SDS, 10% glycerol v/v, 1% dithiothreitol (DTT) and 0.1 mg/ml bromophenol blue). […] The membrane was exposed for 5 minutes to Chemiluminescence BioMax light film (Kodak, USA) and the intensity of the bands was measured with a VersaDoc instrument with a Quantityl program (Bio-Rad, USA). […]

[9] = test system: kinases which phosphorylate acyclovir; test: Acyclovir phosphorylation (viral thymidine kinase activity) in 4T1 cell extracts; format: cell-based, murine; conditions: 4T1 cells, 24 hours, 40 μM
Procedure: The mammalian thymidine kinase (TK) has a narrow specificity and acts only on thymidine. […] The lysates obtained were kept at −70 ° C. until analyzed either spectroscopically or by RT-PCR. […] The ADP is converted to ATP by pyruvate kinase when it hydrolyzes phosphoenolpyruvate (PEP) to pyruvate. Lactate dehydrogenase then converts pyruvate to lactate and NADH to NAD^+. The decrease in fluorescence emitted by NADH (excitation/emission of 320/460 nm) during 10 cycles, each lasting 1 minute, were monitored using a FluoStar fluorometer. The reaction velocity was determined by the slope of the fluorescence vs. time.

[10] = test system: herpes virus; conditions: Brigden & Whiteman, 1983; cited from earlier work

For `Nc1nc2c(ncn2COCCO)c(=O)[nH]1` [acyclovir, reference compound], the IC50 [1] was “could not be reached”, the IC50 [2] was “could not be reached” and the mortality at 50 µM [3] was 11%. For the same compound, the mitochondrial membrane potential [4] was “no apparent effect”, the “level of oxidation in cells (ROS)” value [5] was “little if any effect” and the “inhibitory effect on proteasome activity” value [6] was “only a marginal inhibitory effect”. For the same compound, the “phase of cell-cycle arrest” value ([7]; 1 mM) was “S phase”, the “Percentage of cells in G0-G1 stage” value ([7]; 1000 μM) was 14.1% and the “Percentage of cells in G2-M stage” value ([7]; 1000 μM) was 12.2%. The “Percentage of cells in S stage” value ([7]; 1000 μM) was 73.6%, the “acetylation of histone H4” value [8] was “did not” and the “rate of acyclovir phosphorylation (kinase activity)” value [9] was “no effect on the kinase activity”. For the same compound, the “inhibition of herpes virus replication at concentrations lower than those inhibiting mammalian cellular functions” value [10] was 300-3000 fold.
